Measured values as given in PubChem BioAssay AID1259408 (Genetic Toxicology Data Bank (GENE-TOX), 2018).
Activity calls are given as the source filed them. No rule for the calls is given here.

Test system: GENE-TOX genotoxicity assays, various organisms and cells
Assay: GENE-TOX mutagenicity studies
Details: for call: Assay Type: In vivo carcinogenicity studies
[1] = Species/Cell Type: Salmonella typhimurium (one or more of the five standard strains: TA98, TA100, TA1535, TA1537, and TA1538), Assay Type: Histidine reverse gene mutation, Ames assay, Assay Code: SAL+, Evaluation Type: Evaluation A (Pre-1980)
[2] = Species/Cell Type: Drosophila melanogaster, Assay Type: Sex-linked recessive lethal gene mutation, Assay Code: SRL+, Evaluation Type: Evaluation A (Pre-1980)
[3] = Species/Cell Type: Hordeum vulgare (barley), Assay Type: Chromosome aberrations, Assay Code: HOC+, Evaluation Type: Evaluation A (Pre-1980)
[4] = Species/Cell Type: Mammalian polychromatic erythrocytes, Assay Type: Micronucleus test, chromosome aberrations, Assay Code: MNT+, Evaluation Type: Evaluation A (Pre-1980)
[5] = Species/Cell Type: Neurospora crassa, Assay Type: Forward gene mutation, Assay Code: NEF+, Evaluation Type: Evaluation A (Pre-1980)
[6] = Species/Cell Type: Vicia faba, Assay Type: Chromosome aberrations, Assay Code: VIC+D, Dose Response: With dose response, Evaluation Type: Evaluation A (Pre-1980)
[7] = Species/Cell Type: Human lymphocytes, Assay Type: Sister-chromatid exchange (SCE) in vivo, Assay Code: SCY+, Evaluation Type: Evaluation B (Post-1980)
[8] = Species/Cell Type: Nonhuman, Assay Code: CCG+, Evaluation Type: Evaluation A (Pre-1980)
[9] = Species/Cell Type: Salmonella typhimurium (one or more of the five standard strains: TA98, TA100, TA1535, TA1537, and TA1538), Assay Type: Histidine reverse gene mutation, Ames assay, Assay Code: SAL+*, Activation: With metabolic activation, Evaluation Type: Evaluation A (Pre-1980)
[10] = Species/Cell Type: Syrian hamster embryo (SA7/SHE) cells, Assay Type: Cell transformation, viral enhanced, Assay Code: CT7+, Evaluation Type: Evaluation A (Pre-1980)
[11] = Species/Cell Type: Salmonella typhimurium (one or more of the five standard strains: TA98, TA100, TA1535, TA1537, and TA1538), Assay Type: Histidine reverse gene mutation, Ames assay, Assay Code: SALT, Evaluation Type: Evaluation A (Pre-1980)
[12] = Species/Cell Type: Mammalian polychromatic erythrocytes, Assay Type: Micronucleus test, chromosome aberrations, Assay Code: MNTT, Evaluation Type: Evaluation B (Post-1980)
[13] = Species/Cell Type: Bacillus subtilis (H17 vs M45), Assay Type: Rec-assay, spot test, DNA effects (bacterial DNA repair), Assay Code: REWT, Evaluation Type: Evaluation A (Pre-1980)
[14] = Species/Cell Type: Saccharomyces cerevisiae, Assay Type: Mitotic recombination or gene conversion, Assay Code: YEH-, Evaluation Type: Evaluation A (Pre-1980)

SMILES: c1cc2ccc3cc4c(c5ccc(c1)c2c35)CCC1OC41 (centres undefined)
- mutagenic call (Species/Cell Type: Chinese hamster lung (V79) cells, Assay Type: Forward gene mutation at the HPRT or ouabain locus, Assay Code: V79-, Evaluation Type: Evaluation A (Pre-1980)): inactive; negative
- mutagenic call (Species/Cell Type: Mouse prostate cells, Assay Type: Cell transformation, Assay Code: CTM+, Evaluation Type: Evaluation A (Pre-1980)): active; positive
- mutagenic call [1]: active; positive

SMILES: CC1CN1P(=O)(N1CC1C)N1CC1C (centres undefined)
- mutagenic call [2]: active; positive
- mutagenic call (Species/Cell Type: F1 mouse, Sex: Male, Assay Type: Sperm morphology, Assay Code: SPFT, Evaluation Type: Evaluation A (Pre-1980)): no conclusion
- mutagenic call [3]: active; positive
- mutagenic call [4]: active; positive
- mutagenic call (Species/Cell Type: Mouse, Sex: Male, Assay Type: Sperm morphology, Assay Code: SPI+, Evaluation Type: Evaluation A (Pre-1980)): active; positive
- mutagenic call [5]: active; positive
- mutagenic call (Species/Cell Type: Nonhuman bone marrow, Assay Type: Chromosome aberrations, in vivo, Assay Code: CY#+, Evaluation Type: Evaluation A (Pre-1980)): active; positive
- call (Species/Cell Type: Nonhuman, Assay Code: CCGT, Evaluation Type: Evaluation A (Pre-1980)): no conclusion
- mutagenic call (Species/Cell Type: Rodents, Sex: Male, Assay Type: Dominant lethal test, Assay Code: DLT+, Evaluation Type: Evaluation A (Pre-1980)): active; positive
- mutagenic call [6]: active; positive

SMILES: CC(C(=O)O)c1ccc(-c2ccccc2)c(F)c1 (centres undefined)
- mutagenic call [7]: active; positive

SMILES: Nc1cccc2c(N)cccc12
- call [8]: active; positive

SMILES: C=CCOC(=O)CC(C)C
- call [8]: active; positive

SMILES: O=C(O)c1ccc2c([N+](=O)[O-])cccc2n1
- mutagenic call [1]: active; positive

SMILES: Cc1cccc2ccc3c4ccccc4ccc3c12
- mutagenic call [9]: active; positive

SMILES: O=C(O)C1(O)C[C@@H](O)C(O)[C@H](O)C1 (some centres undefined)
- mutagenic call (Species/Cell Type: Salmonella typhimurium (one or more of the five standard strains: TA98, TA100, TA1535, TA1537, and TA1538), Assay Type: Histidine reverse gene mutation, Ames assay, Assay Code: SAL-, Evaluation Type: Evaluation A (Pre-1980)): inactive; negative

SMILES: O=C1N(CCO)CCN1/N=C/c1ccc([N+](=O)[O-])o1
- mutagenic call [1]: active; positive

SMILES: C[C@H]1CCCCN1N=O
- call [8]: active; positive

SMILES: CCCCCCCCCCCC(=O)N(C)N=O
- mutagenic call (Species/Cell Type: Saccharomyces cerevisiae, Assay Type: Reverse gene mutation, Assay Code: YER+, Evaluation Type: Evaluation A (Pre-1980)): active; positive

SMILES: CS(=O)(=O)OCCCCO
- mutagenic call [2]: active; positive

SMILES: CC(=O)Oc1c2ccccc2c2ccc3cccc4ccc1c2c43
- mutagenic call [10]: active; positive

SMILES: Cc1ccc(N2CCN(C)CC2)c2c(=O)c3ccc(Cl)cc3sc12
- mutagenic call [11]: no conclusion

SMILES: c1cc2c(cc1CC1CO1)OCO2 (centres undefined)
- mutagenic call [1]: active; positive

SMILES: O=[N+]([O-])c1ccc(-c2nc(N(CCO)CCO)c3ccccc3n2)s1
- mutagenic call [11]: no conclusion

SMILES: Cc1csc(NNC=O)n1
- mutagenic call (Species/Cell Type: Escherichia coli WP2, Assay Type: Tryptophan reverse gene mutation, Assay Code: WP2-, Evaluation Type: Evaluation A (Pre-1980)): inactive; negative
- mutagenic call (Species/Cell Type: Escherichia coli WP2 UVRA, Assay Type: Tryptophan reverse gene mutation, Assay Code: WPU-, Evaluation Type: Evaluation A (Pre-1980)): inactive; negative

SMILES: O=C1O[C@H]([C@H](O)CO)C(O)=C1O
- mutagenic call (Species/Cell Type: Human, Assay Type: Sister-chromatid exchange (SCE) in vitro, Assay Code: SC1T, Evaluation Type: Evaluation B (Post-1980)): no conclusion

SMILES: O=C(O)/C=C/c1ccc(O)c(O)c1
- mutagenic call [12]: no conclusion

SMILES: C=C/C=C/Cl
- mutagenic call [2]: active; positive

SMILES: NCl
- mutagenic call [12]: no conclusion

SMILES: CCOP(=S)(OCC)Oc1ccc([N+](=O)[O-])cc1
- mutagenic call (Species/Cell Type: Allium cepa, Assay Type: Chromosome aberrations, Assay Code: ALC+D, Dose Response: With dose response, Evaluation Type: Evaluation A (Pre-1980)): active; positive
- mutagenic call [13]: no conclusion
- mutagenic call (Species/Cell Type: Drosophila melanogaster, Assay Type: Sex-linked recessive lethal gene mutation, Assay Code: SRLT, Evaluation Type: Evaluation A (Pre-1980)): no conclusion
- mutagenic call (Species/Cell Type: Escherichia coli WP2 UVRA, Assay Type: Tryptophan reverse gene mutation, Assay Code: WPU-*, Activation: With metabolic activation, Evaluation Type: Evaluation A (Pre-1980)): inactive; negative
- mutagenic call (Species/Cell Type: Escherichia coli polA (W3119 vs P3478), Assay Type: Rec-assay, DNA effects (bacterial DNA repair), Assay Code: RE1T, Evaluation Type: Evaluation A (Pre-1980)): no conclusion
- mutagenic call (Species/Cell Type: Human diploid fibroblasts, Assay Type: Unscheduled DNA synthesis (UDS) in vitro, DNA effects, Assay Code: UDH-, Evaluation Type: Evaluation A (Pre-1980)): inactive; negative
- mutagenic call (Species/Cell Type: Human lymphocytes, Assay Type: Sister-chromatid exchange (SCE) in vitro, Assay Code: SCL+D, Dose Response: With dose response, Evaluation Type: Evaluation B (Post-1980)): active; positive
- mutagenic call (Species/Cell Type: Human, Assay Type: Sister-chromatid exchange (SCE) in vitro, Assay Code: SC1+D, Dose Response: With dose response, Evaluation Type: Evaluation B (Post-1980)): active; positive
- mutagenic call (Species/Cell Type: Nonhuman, Assay Type: Sister-chromatid exchange (SCE) in vitro, Assay Code: SC2+D, Dose Response: With dose response, Evaluation Type: Evaluation B (Post-1980)): active; positive
- mutagenic call [14]: inactive; negative
- mutagenic call [11]: no conclusion

SMILES: C=C(C)[C@H]1O[C@H]2CC[C@@]3(C)[C@@](O)(CC[C@H]4[C@@H]5OC(C)(C)[C@H]6C[C@@H]7C(=C)Cc8c(Cl)cc9[nH]c(c5c9c8[C@@]76O)[C@@]43C)[C@]23O[C@@H]3[C@H]1O
- mutagenic call [14]: inactive; negative
- mutagenic call [11]: no conclusion

SMILES: CC(C(=O)O)c1ccc(C(=O)c2ccccc2)s1 (centres undefined)
- mutagenic call [7]: active; positive

SMILES: CCN(CC)CCn1nc2c3c(c(C)ccc31)Sc1ccccc1-2
- mutagenic call [2]: active; positive
- mutagenic call (Species/Cell Type: Mouse lymphoma (L5178Y) cells, Assay Type: Forward gene mutation at the thymidine kinase (TK) locus, chromosome aberrations, Assay Code: L51+, Evaluation Type: Evaluation A (Pre-1980)): active; positive
- mutagenic call [5]: active; positive

SMILES: CN(C)N=Nc1ccccc1
- mutagenic call (Species/Cell Type: Drosophila melanogaster, Assay Type: Aneuploidy, partial sex chromosome loss, chromosome aberrations, Assay Code: DAP+M, Evaluation Type: Evaluation A (Pre-1980)): active; positive
- mutagenic call [2]: active; positive
- mutagenic call (Species/Cell Type: Drosophila melanogaster, Sex: Male, Assay Type: Heritable translocation test, chromosome aberrations, Assay Code: DHT+, Evaluation Type: Evaluation A (Pre-1980)): active; positive
- mutagenic call (Species/Cell Type: Escherichia coli polA (W3110 vs P3478), Assay Type: Rec-assay, DNA effects (bacterial DNA repair), Assay Code: RE2+, Evaluation Type: Evaluation A (Pre-1980)): active; positive
- mutagenic call (Species/Cell Type: Escherichia coli polA (W3119 vs P3478), Assay Type: Rec-assay, DNA effects (bacterial DNA repair), Assay Code: RE1+, Evaluation Type: Evaluation A (Pre-1980)): active; positive
- mutagenic call [4]: active; positive
- mutagenic call [5]: active; positive
- mutagenic call (Species/Cell Type: Nonhuman lymphocytes or leukocytes, Assay Type: Chromosome aberrations in vivo, Assay Code: CY%-, Evaluation Type: Evaluation A (Pre-1980)): inactive; negative
- call [8]: active; positive
- mutagenic call (Species/Cell Type: Nonhuman, Assay Type: Sister-chromatid exchange (SCE) in vivo, Assay Code: SC3+D, Dose Response: With dose response, Evaluation Type: Evaluation A (Pre-1980)): active; positive
- mutagenic call (Species/Cell Type: Saccharomyces cerevisiae, Assay Type: Forward and reverse gene mutation, mitotic recombination and gene conversion, host-mediated assay, Assay Code: HME+, Evaluation Type: Evaluation A (Pre-1980)): active; positive
- mutagenic call (Species/Cell Type: Saccharomyces cerevisiae, Assay Type: Mitotic recombination or gene conversion, Assay Code: YEC+, Evaluation Type: Evaluation A (Pre-1980)): active; positive
- mutagenic call (Species/Cell Type: Saccharomyces cerevisiae, Assay Type: Mitotic recombination or gene conversion, Assay Code: YEH+, Evaluation Type: Evaluation A (Pre-1980)): active; positive

SMILES: O=C(CCCCCCCCC(=O)N1CC1)N1CC1
- mutagenic call [3]: active; positive
- mutagenic call [6]: active; positive

SMILES: Cc1cc(C(=C2C=CC(=Nc3ccc(S(=O)(=O)O)cc3)C=C2)c2ccc(Nc3ccc(S(=O)(=O)O)cc3)cc2)cc(S(=O)(=O)O)c1N
- mutagenic call [13]: no conclusion

SMILES: O=NN1CCC(c2ccccc2)CC1
- mutagenic call [9]: active; positive

SMILES: CC(=O)[O-].CC(=O)[O-].CC(=O)[O-].[Sb+3]
- mutagenic call [10]: active; positive

SMILES: Cc1cc(=Nc2ccc3c(c2)c(-c2ccc(N)cc2)[n+](C)c2cc(N)ccc32)nc(N)n1C
- mutagenic call [1]: active; positive
